In paper PMC8907193, “The YΦ motif defines the structure-activity relationships of human 20S proteasome activators” (Nature Communications, 2022):
Square brackets hold non-standard residues; d marks the D form. Ends that are not written are not given here. Peptide text beside a SMILES is read from it. Cha = N[C@@H](CC1CCCCC1)C(=O)O

Experiments:
[1] = Visual inspection of 10 mM DMSO stocks (solubility); assay type: physicochemical; conditions: 10 mM in DMSO (Suppl Fig 1e)
[2] = tested on: T1, human 20S proteasome (h20S); test: h20S stimulation, hydrolysis of suc-LLVY-amc (chymotryptic-like activity); assay type: biochemical
T1 construct: purchased Proteasome Center
Method: Human 20S (h20S) (final concentration of 4 nM) was incubated in the presence or absence of activators (peptides, 0.2–600 μM; MBP 0.2–400 μM; PA26, 0.04–3500 nM) at ambient temperature for 5 min. Substrate (suc-LLVY-amc, 10 μM; boc-LRR-amc, 20 μM; or FAM-LFP, 100 nM) was added immediately before reading. Fluorescence intensity of suc-LLVY-amc and boc-LRR-amc (excitation, 355 nm; emission, 440 nm; cutoff 435 nm) or FAM-LFP (excitation, 490 nm; emission, 520 nm; cutoff, 515 nm) were monitored at 30 to 60 s intervals for 30 min at 25 °C using a Spectramax M5 microplate reader (Molecular Devices; SoftMax Pro 6.5.1). The hydrolysis rate was calculated from the slope of the curve between 100 and 500 s (500 and 1000 s for boc-LRR-amc) in arbitrary units (RFU per s).
Data were processed and fit in GraphPad Prism 8.1.2. The baseline hydrolysis was normalized to the total mean activity for the lowest concentration of every activator assayed in a given plate and the maximal hydrolysis was normalized as reported. The normalized activity was plotted relative to log10(activator). Data was fit to the model for log(agonist) versus response (variable slope). In Eq. (1), X = log[activator, μM] except for PA26-based activators, which are in nanomolar.1 Y=Bottom+(Top−Bottom)/1+10^((logEC50−X)×Hillslope)

Row | solubility of DMSO stock, visual [1] | improvement of potency relative to Opt5^YY ([2]; ratio of EC50) | stimulation of h20S, result in words ([2]; suc-LLVY-amc turnover) | Compound
1 | insoluble | – | – | ANLQYFA [hRpt5-YP2F]
2 | – | ~ 2 fold | completely inactivated | CC(C)C[C@H](NC(=O)[C@@H](N)CC(N)=O)C(=O)N[C@@H](CO)C(=O)N[C@@H](Cc1ccc(O)cc1)C(=O)N[C@@H](CC1CCCCC1)C(=O)N[C@H](C(=O)O)[C@@H](C)O [Opt5^Y4] (H-NLSY[Cha]T-OH; N-terminus and C-terminus assumed)
